The subject of assay [1] is Escherichia coli ATCC 25922. It counts as cell-based. As to conditions: ATCC 25922. The method in brief: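 Broth microdilution in MHB per CLSI; inoculum 2×10^5 CFU mL^−1 from log-phase TSB cultures at OD600 0.5. Plates incubated 16 hours at 37° C with shaking at 220 rpm. MIC is the lowest concentration preventing visible growth.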
Assay [2] concerns K. pneumoniae ATCC 11228. Type of assay: cell-based, Klebsiella pneumoniae. The settings on record: ATCC 11228. On the procedure: (§1) Minimum inhibitory concentration (MIC) was determined by broth microdilution according to CLSI guidelines. Blood agar plates were inoculated with glycerol stocks of Escherichia coli ATCC 25922, E. coli ATCC 25922 MCR-1, E. coli MCR-1 (clinical isolate from Utrecht Medical Center, NL), E. coli EQAS MCR-2 (clinical isolate from Wageningen University and Research, NL), Kiebsielia pneumoniae ATCC 11228, K. pneumoniae ATCC 13883, K. pneumonia 2048 (clinical isolate from Vrije Universiteit Amsterdam Medical Center, NL), K. pneumonia JS-123 (clinical isolate from Utrecht Medical Center, NL), Acinetobacter baumannii ATCC 17961, A. baumannil ATCC 17978, A. baumannii 2018-006 (clinical isolate from Rijksinstituut voor Volksgezondheid en Milieu, NL), A. baumannii MDR (clinical isolate from Vrije Universiteit Amsterdam Medical Center, NL), Pseudomonas aeruginosa ATCC 27853, P. aeruginosa PAO1, P. aeruginosa NRZ-03961 (Reference strain from Das Nationale Referenzzentrum für gramnegative Krankenhauserreger, DE), P. aeruginosa M-120 (clinical isolate from Leiden University Medical Center, NL) and Staphylococcus aureus USA300 (clinical isolate from Texas Children's Hospitalm, USA). E. coli 25922 MCR1 was grown on LB agar supplemented with kanamycin. The inoculated agar plates were then incubated for 16 hours at 37° C. Individually grown colonies were subsequently used to inoculate 3 mL aliquots of TSB that were then incubated at 37° C. with shaking at 220 rpm. In parallel, the compounds to be assessed were serially diluted with Mueller-Hinton broth (MHB) in polypropylene 96-well plates (50 μL in each well). Once the OD600 of the bacterial suspensions reached 0.5, the bacteria were diluted with MHB (final concentration 2×10^5 CFU mL^−1) and added to the microplates containing the test compounds (50 μL to each well, final volume: 100 μL). The well-plates were sealed with an adhesive membrane and after 16 hours of incubation at 37° C. with shaking at 220 rpm the wells were visually inspected for bacterial growth. MIC values were defined as the lowest concentration of the compound that prevented visible growth of bacteria.

Assay [3] deals with A. baumannii ATCC 17978. Type of assay: cell-based, Acinetobacter baumannii. As to conditions: ATCC 17978. On the procedure:
as §1

For assay [4], the system named is P. aeruginosa PAO1. Type of assay: cell-based, Pseudomonas aeruginosa. As to conditions: PAO1. The protocol: as §1
For assay [5], the system named is E. Coli NCTC 12241. It counts as cell-based. On the procedure:
as §1
were tested for inhibition of E. Coli NCTC 12241.

Assay [6] concerns E. coli. Type of assay: cell-based. The protocol:
as §1
MIC values were determined for the lipid analogues of brevicidine.
MIC values were determined for the position 9 analogues of linear brevicidine.

In brackets after ≈: the same amount, converted by molar mass. Positions of bridges follow the written chain, without caps; N, C: chain ends. Non-standard residues stand in square brackets, D forms with d. Residues, ends and D or L forms follow the SMILES beside them. ξ: configuration not given here. *: point of attachment. Palmitoyl = CCCCCCCCCCCCCCCC(=O)*; Hexanoyl(4ξ-Me) = CCC(C)CCC(=O)*; Myristoyl = CCCCCCCCCCCCCC(=O)*; Lauroyl = CCCCCCCCCCCC(=O)*; Decanoyl = CCCCCCCCCC(=O)*; dOrn = NCCC[C@@H](N)C(=O)O; Octanoyl = CCCCCCCC(=O)*; Orn = NCCC[C@H](N)C(=O)O; Hexanoyl = CCCCCC(=O)*; Butyryl = CCCC(=O)*

`CC[C@H](C)[C@@H]1NC(=O)[C@@H](NC(=O)[C@H](Cc2c[nH]c3ccccc23)NC(=O)[C@@H](CCCN)NC(=O)CNC(=O)[C@H](CCCN)NC(=O)[C@@H](CCCN)NC(=O)[C@@H](Cc2c[nH]c3ccccc23)NC(=O)[C@@H](Cc2ccc(O)cc2)NC(=O)[C@@H](CO)NC(C)=O)[C@@H](C)OC(=O)CNC(=O)CNC(=O)[C@H](CC(N)=O)NC1=O` [Compound C2] (Ac-[dS][dY][dW][dOrn][Orn]G[dOrn]WTINGG; ester 9-C): the “Minimum inhibitory concentration (MIC)” value in assay [1] is 16 µg/mL (≈ 10.6 µM); in assay [2], 16 µg/mL (≈ 10.6 µM); in assay [3], 64 µg/mL (≈ 42.5 µM); in assay [4], 16 µg/mL (≈ 10.6 µM).
On to `CCCC(=O)N[C@H](CO)C(=O)N[C@H](Cc1ccc(O)cc1)C(=O)N[C@H](Cc1c[nH]c2ccccc12)C(=O)N[C@H](CCCN)C(=O)N[C@@H](CCCN)C(=O)NCC(=O)N[C@H](CCCN)C(=O)N[C@@H](Cc1c[nH]c2ccccc12)C(=O)N[C@@H]1C(=O)N[C@@H]([C@@H](C)CC)C(=O)N[C@@H](CC(N)=O)C(=O)NCC(=O)NCC(=O)O[C@@H]1C` [Compound C4] (Butyryl-[dS][dY][dW][dOrn][Orn]G[dOrn]WTINGG; ester 9-C), for which the “Minimum inhibitory concentration (MIC)” value in assay [1] was 8 µg/mL (≈ 5.21 µM); in assay [2], 8 µg/mL (≈ 5.21 µM); in assay [3] it was 4 µg/mL (≈ 2.61 µM); in assay [4], 8 µg/mL (≈ 5.21 µM).
As for `CCCCCC(=O)N[C@H](CO)C(=O)N[C@H](Cc1ccc(O)cc1)C(=O)N[C@H](Cc1c[nH]c2ccccc12)C(=O)N[C@H](CCCN)C(=O)N[C@@H](CCCN)C(=O)NCC(=O)N[C@H](CCCN)C(=O)N[C@@H](Cc1c[nH]c2ccccc12)C(=O)N[C@@H]1C(=O)N[C@@H]([C@@H](C)CC)C(=O)N[C@@H](CC(N)=O)C(=O)NCC(=O)NCC(=O)O[C@@H]1C` [Compound C6] (Hexanoyl-[dS][dY][dW][dOrn][Orn]G[dOrn]WTINGG; ester 9-C), the “Minimum inhibitory concentration (MIC)” value in assay [1] is 1 to 2 µg/mL; in assay [2] it was 2 µg/mL (≈ 1.28 µM); in assay [3], 1 µg/mL (≈ 0.64 µM); in assay [4] it was 1 to 2 µg/mL.
For `CCCCCCCC(=O)N[C@H](CO)C(=O)N[C@H](Cc1ccc(O)cc1)C(=O)N[C@H](Cc1c[nH]c2ccccc12)C(=O)N[C@H](CCCN)C(=O)N[C@@H](CCCN)C(=O)NCC(=O)N[C@H](CCCN)C(=O)N[C@@H](Cc1c[nH]c2ccccc12)C(=O)N[C@@H]1C(=O)N[C@@H]([C@@H](C)CC)C(=O)N[C@@H](CC(N)=O)C(=O)NCC(=O)NCC(=O)O[C@@H]1C` [Compound C8] (Octanoyl-[dS][dY][dW][dOrn][Orn]G[dOrn]WTINGG; ester 9-C), the “Minimum inhibitory concentration (MIC)” value in assay [1] is 0.5 to 1 µg/mL; in assay [2] it was 0.5 to 1 µg/mL; in assay [3], 0.5 to 1 µg/mL; in assay [4], 1 µg/mL (≈ 0.629 µM).
`CCCCCCCCCC(=O)N[C@H](CO)C(=O)N[C@H](Cc1ccc(O)cc1)C(=O)N[C@H](Cc1c[nH]c2ccccc12)C(=O)N[C@H](CCCN)C(=O)N[C@@H](CCCN)C(=O)NCC(=O)N[C@H](CCCN)C(=O)N[C@@H](Cc1c[nH]c2ccccc12)C(=O)N[C@@H]1C(=O)N[C@@H]([C@@H](C)CC)C(=O)N[C@@H](CC(N)=O)C(=O)NCC(=O)NCC(=O)O[C@@H]1C` [Compound C10] (Decanoyl-[dS][dY][dW][dOrn][Orn]G[dOrn]WTINGG; ester 9-C): the “Minimum inhibitory concentration (MIC)” value in assay [1] is 1 to 2 µg/mL; in assay [2], 1 µg/mL (≈ 0.618 µM); in assay [3], 1 µg/mL (≈ 0.618 µM); in assay [4], 1 to 2 µg/mL.
On to `CCCCCCCCCCCC(=O)N[C@H](CO)C(=O)N[C@H](Cc1ccc(O)cc1)C(=O)N[C@H](Cc1c[nH]c2ccccc12)C(=O)N[C@H](CCCN)C(=O)N[C@@H](CCCN)C(=O)NCC(=O)N[C@H](CCCN)C(=O)N[C@@H](Cc1c[nH]c2ccccc12)C(=O)N[C@@H]1C(=O)N[C@@H]([C@@H](C)CC)C(=O)N[C@@H](CC(N)=O)C(=O)NCC(=O)NCC(=O)O[C@@H]1C` [Compound C12] (Lauroyl-[dS][dY][dW][dOrn][Orn]G[dOrn]WTINGG; ester 9-C), for which the “Minimum inhibitory concentration (MIC)” value in assay [1] is 4 µg/mL (≈ 2.43 µM); in assay [2], 2 to 4 µg/mL; in assay [3], 2 µg/mL (≈ 1.21 µM); in assay [4], 4 µg/mL (≈ 2.43 µM).
In the case of `CCCCCCCCCCCCCC(=O)N[C@H](CO)C(=O)N[C@H](Cc1ccc(O)cc1)C(=O)N[C@H](Cc1c[nH]c2ccccc12)C(=O)N[C@H](CCCN)C(=O)N[C@@H](CCCN)C(=O)NCC(=O)N[C@H](CCCN)C(=O)N[C@@H](Cc1c[nH]c2ccccc12)C(=O)N[C@@H]1C(=O)N[C@@H]([C@@H](C)CC)C(=O)N[C@@H](CC(N)=O)C(=O)NCC(=O)NCC(=O)O[C@@H]1C` [Compound C14] (Myristoyl-[dS][dY][dW][dOrn][Orn]G[dOrn]WTINGG; ester 9-C), the “Minimum inhibitory concentration (MIC)” value is 8 µg/mL (≈ 4.78 µM) in assay [1], 8 µg/mL (≈ 4.78 µM) in assay [2], 4 µg/mL (≈ 2.39 µM) in assay [3] and 8 µg/mL (≈ 4.78 µM) in assay [4].
For the molecule `CCCCCCCCCCCCCCCC(=O)N[C@H](CO)C(=O)N[C@H](Cc1ccc(O)cc1)C(=O)N[C@H](Cc1c[nH]c2ccccc12)C(=O)N[C@H](CCCN)C(=O)N[C@@H](CCCN)C(=O)NCC(=O)N[C@H](CCCN)C(=O)N[C@@H](Cc1c[nH]c2ccccc12)C(=O)N[C@@H]1C(=O)N[C@@H]([C@@H](C)CC)C(=O)N[C@@H](CC(N)=O)C(=O)NCC(=O)NCC(=O)O[C@@H]1C` [Compound C16] (Palmitoyl-[dS][dY][dW][dOrn][Orn]G[dOrn]WTINGG; ester 9-C), the “Minimum inhibitory concentration (MIC)” value is 64 µg/mL (≈ 37.6 µM) in assay [1], 32 µg/mL (≈ 18.8 µM) in assay [2], 4 to 8 µg/mL in assay [3] and 64 µg/mL (≈ 37.6 µM) in assay [4].
Regarding `CCC(C)CCC(=O)N[C@H](CC(N)=O)C(=O)N[C@H](Cc1ccc(O)cc1)C(=O)N[C@H](Cc1c[nH]c2ccccc12)C(=O)N[C@H](CCCN)C(=O)N[C@@H](CCCN)C(=O)NCC(=O)N[C@H](CCCN)C(=O)N[C@@H](Cc1c[nH]c2ccccc12)C(=O)N[C@@H](C)C(=O)N[C@H](C(=O)NCC(=O)O)[C@@H](C)CC` (stereo partly drawn) [MeHex- Ala OH] ({Hexanoyl(4ξ-Me)}-[dN][dY][dW][dOrn][Orn]G[dOrn]WAIG-OH), the “E. coli MIC” value in assay [5] stood at 50 µg/mL.
With `CC[C@H](C)[C@@H]1NC(=O)[C@@H](NC(=O)[C@H](Cc2c[nH]c3ccccc23)NC(=O)[C@@H](CCCN)NC(=O)CNC(=O)[C@H](CCCN)NC(=O)[C@@H](CCCN)NC(=O)[C@@H](Cc2c[nH]c3ccccc23)NC(=O)[C@@H](Cc2ccc(O)cc2)NC(=O)[C@H](N)CO)[C@@H](C)OC(=O)CNC(=O)CNC(=O)[C@H](CC(N)=O)NC1=O` [NH2] (H-[dS][dY][dW][dOrn][Orn]G[dOrn]WTINGG; ester 9-C), the “Minimum inhibitory concentration (MIC)” value was 32 µg/mL (≈ 21.8 µM) in assay [1], over 64 µg/mL in assay [2], over 64 µg/mL in assay [3] and 64 µg/mL (≈ 43.7 µM) in assay [4].
Turning to `CCC(C)CCC(=O)N[C@H](CC(N)=O)C(=O)N[C@H](Cc1ccc(O)cc1)C(=O)N[C@H](Cc1c[nH]c2ccccc12)C(=O)N[C@H](CCCN)C(=O)N[C@@H](CCCN)C(=O)NCC(=O)N[C@H](CCCN)C(=O)N[C@@H](Cc1c[nH]c2ccccc12)C(=O)N[C@@H](Cc1ccccc1)C(=O)N[C@H](C(=O)NCC(N)=O)[C@@H](C)CC` (stereo partly drawn) [Und(9-Phe)-NH2] ({Hexanoyl(4ξ-Me)}-[dN][dY][dW][dOrn][Orn]G[dOrn]WFIG-NH2), in assay [6], the “E. coli MIC” value was under 0.20 µg/mL.
In the case of `CCC(C)CCC(=O)N[C@H](CC(N)=O)C(=O)N[C@H](Cc1ccc(O)cc1)C(=O)N[C@H](Cc1c[nH]c2ccccc12)C(=O)N[C@H](CCCN)C(=O)N[C@@H](CCCN)C(=O)NCC(=O)N[C@H](CCCN)C(=O)N[C@@H](Cc1c[nH]c2ccccc12)C(=O)N[C@@H](Cc1c[nH]c2ccccc12)C(=O)N[C@H](C(=O)NCC(N)=O)[C@@H](C)CC` (stereo partly drawn) [Und(9-Trp)-NH2] ({Hexanoyl(4ξ-Me)}-[dN][dY][dW][dOrn][Orn]G[dOrn]WWIG-NH2), the “E. coli MIC” value in assay [6] is 0.78 µg/mL.
